Among the data in patent publication US10184115B2, “Mutated cellobiose dehydrogenase with increased substrate specificity” (DIRECTSENS GMBH, priority 2012, dated 2019) are kcat/KM and kcat values, retold here.

The assay concerns the target T1, Myriococcum thermophilum cellobiose dehydrogenase (CDH, SEQ ID NO: 1) variant W316R (Thermothelomyces myriococcoides, UniProt A9XK88, W316R).
T1 sequence (A9XK88 22-828 W316R): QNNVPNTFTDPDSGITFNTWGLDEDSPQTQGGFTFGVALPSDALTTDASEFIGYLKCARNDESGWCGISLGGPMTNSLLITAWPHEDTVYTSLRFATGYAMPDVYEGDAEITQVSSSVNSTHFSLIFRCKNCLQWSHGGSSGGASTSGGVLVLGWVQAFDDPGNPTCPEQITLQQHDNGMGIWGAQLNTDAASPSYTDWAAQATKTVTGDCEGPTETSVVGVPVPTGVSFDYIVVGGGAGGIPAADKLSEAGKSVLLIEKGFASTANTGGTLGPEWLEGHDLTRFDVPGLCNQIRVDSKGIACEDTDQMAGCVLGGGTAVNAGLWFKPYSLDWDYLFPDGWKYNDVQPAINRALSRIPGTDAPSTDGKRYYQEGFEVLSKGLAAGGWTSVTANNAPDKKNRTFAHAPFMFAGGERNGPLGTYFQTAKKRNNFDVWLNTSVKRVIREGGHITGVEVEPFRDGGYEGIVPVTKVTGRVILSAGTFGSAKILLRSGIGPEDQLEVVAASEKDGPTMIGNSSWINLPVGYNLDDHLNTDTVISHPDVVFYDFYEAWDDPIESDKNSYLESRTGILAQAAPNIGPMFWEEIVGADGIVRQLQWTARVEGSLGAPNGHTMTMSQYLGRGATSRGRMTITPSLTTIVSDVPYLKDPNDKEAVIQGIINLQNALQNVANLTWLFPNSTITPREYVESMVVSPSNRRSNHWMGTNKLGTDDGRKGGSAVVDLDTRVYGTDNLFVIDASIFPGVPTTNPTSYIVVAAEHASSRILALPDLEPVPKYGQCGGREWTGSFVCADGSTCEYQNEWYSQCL
Briefly: Steady-state kinetics, DCIP assay: M. thermophilum CDH W316R. The format is biochemical. The following applies: apparent, pH 4.5, 30° C. On the procedure:
Enzyme activity was assayed at 30° C. using either the DCIP (Karapetyan et al., 2005 Journal of Biotechnology 121: 34-48) or cytochrome c (Canevascini et al., 1991, European Journal of Biochemistry 198: 43-52) as electron acceptor. […] Stock solutions of carbohydrates used for kinetic measurements were prepared in the respective buffer and allowed to stand overnight for mutarotation, while stock solutions of electron acceptors were prepared in water and immediately used. The reaction stoichiometry is 1 for the two-electron acceptor DCIP (1 mole of DCIP reduced per mole of carbohydrate oxidized), but 2 for the one-electron acceptor cytochrome c. Kinetic constants were calculated by fitting the observed data to the Henri-Michaelis-Menten equation or to the adapted model for substrate inhibition using nonlinear least-squares regression and the program SigmaPlot (Systat Software, San Jose, Calif., USA). […]
Recombinant wild-type CDH as well as variants were produced in 1 L baffled flasks. […] Increase in activity was monitored using the DCIP and the cytochrome c enzyme assays. […]
The sample was loaded on a 20 mL PHE Sepharose FF column (HR26/20) equilibrated with 50 mM Na-acetate buffer pH 5.5 containing 20% ammonium sulfate. […] Fractions were tested for CDH activity and pooled according to the highest Reinheitszahl (RZ, calculated from the absorbance ratio 420 nm/280 nm). […]

Molecules are shown by their SMILES.

By kcat/KM is commonly meant the second-order rate constant that governs catalysis at low substrate concentration. For orientation: kcat means the maximal rate divided by the concentration of active sites. With `OC[C@H]1O[C@H](O[C@H]2[C@H](O)[C@@H](O)C(O)O[C@@H]2CO)[C@H](O)[C@@H](O)[C@@H]1O` (some centres unmarked) [Maltose, maltose], the kcat/KM amounted to 0.09 M⁻¹ s⁻¹. The kcat (~ values only estimated by non linear regression) is 0.12 s⁻¹.
